Source: paper PMC314469, “Protein Interaction Networks by Proteome Peptide Scanning” (PLoS Biology, 2004)

Each sequence was assayed on Myo5 SH3 domain (assay: SPOT analysis of cellulose-bound peptides (WISE), Myo5 SH3 domain (Dataset S4)). Conditions: SPOT analysis of cellulose-bound 14-mer yeast proteome peptides, Myo5 SH3 domain; normalized value; mean where the peptide was synthesized more than once.
Type: binding, Saccharomyces cerevisiae

| Sequence | The normalized value in BLU units |
| --- | --- |
| RLLALFIPALPFII | 264.8 BLU |
| RLNSFAPPPNPYAT | 273.6 BLU |
| RLQKLDDPKSPYQC | 127.2 BLU |
| RLSLLRSPKAPDAH | 442.3 BLU |
| RPPSHSAPYIPRSS | 47448.0 BLU |
| RRLKKNLPSLPTPV | 823.8 BLU |
| SAENLIQPTAPIRD | 56.4 BLU |
| SAFPYVFPLPPWIP | 12966.5 BLU |
| SANNYPFPQQPNGM | 79.6 BLU |
| SASTMAAPVHPQQQ | 164.3 BLU |
| SEAKRKFPEAPEVP | 392.6 BLU |
| SELYYEGPETPTPS | 50.5 BLU |
| SENGRLTPGLPRSY | 169.8 BLU |
| SFRELWQPVDPSRE | 97.3 BLU |
| SKRMKALPKGPAAL | 821.6 BLU |
| SKVNKVAPDHPFIQ | 72.1 BLU |
| SKYAKLDPSTPVSL | 457.3 BLU |
| SLCALVGPVIPHTI | 28.4 BLU |
| SLISKRNPCYPYGI | 483.2 BLU |
| SLKNRDGPITPSTI | 215.1 BLU |
| SLQQFYNPESPIQP | 131.1 BLU |
| SLVKFSCPMTPLLE | 248.6 BLU |
| SPKFLNSPDLPERT | 182.8 BLU |
| SPLSWSGPLTPPTF | 168.0 BLU |
| SPNDHSDPSCPCNR | 76.1 BLU |
| SPSQYQYPSQPALS | 65.2 BLU |
| SPVPLGSPRGPLPV | 135.1 BLU |
| SRSKRSKPLPPQLL | 884.3 BLU |
| SRVTRKRPREPKST | 829.0 BLU |

Same assay, conditions: SPOT analysis of cellulose-bound peptides probed with Myo5 SH3 domain; normalized value

| Sequence | The normalized value in BLU units (SPOT analysis, Myo5 SH3) |
| --- | --- |
| RLTNFEVPSLPTFH | 319.1 BLU |
| RLWLYAAPKRPKTF | 845.1 BLU |
| RPQWLSYPEQPLNS | 241.0 BLU |
| RPSKFFHPPIPHIP | 776.9 BLU |
| SATGWLKPAVPIQW | 94.6 BLU |
| SAYYLGLPVTPEDM | 215.1 BLU |
| SELTFIAPTQPVST | 110.5 BLU |
| SENRLRTPLKPLVN | 272.3 BLU |
| SENYLVKPTIPGTT | 61.5 BLU |
| SETSHHSPSAPFQR | 257.2 BLU |
| SFDYLFHPFVPCTI | 23.1 BLU |
| SFRKLASPSNPNFF | 208.8 BLU |
| SFTPFNRPSDPSNG | 208.5 BLU |
| SFTRMPLPTPPIEG | 287.1 BLU |
| SFVGFPKPLLPRNH | 205.1 BLU |
| SFVHLTEPSQPLSD | 99.7 BLU |

| Sequence | The normalized value in BLU units (SPOT analysis, Myo5 SH3) |
| --- | --- |
| SLAVYNIPLFPDDP | 91.7 BLU |
| SLDNFYNPLGPEDR | 142.7 BLU |
| SLFPLKTPISPGTS | 239.2 BLU |
| SLISMETPEQPHQQ | 146.8 BLU |
| SLLIHSLPRKPLLM | 314.4 BLU |
| SPFSLFIPTIPATT | 151.7 BLU |
| SPFTFLFPFLPTII | 366.0 BLU |
| SPKKHVSPSRPPSV | 1427.8 BLU |
| SPKKLASPRTPNAN | 276.2 BLU |
| SPKPFSKPQEPVKA | 359.1 BLU |
| SPRCLPTPILPSMS | 192.8 BLU |
| SPRHYNVPSSPIAP | 232.7 BLU |
| SPSDFNKPDLPELI | 316.9 BLU |
| SPSTHAAPVTPIIS | 53.3 BLU |
| SPSTMDFPKLPSFQ | 466.9 BLU |
| SPVNLLKPFNPTLP | 122.9 BLU |

Same assay, conditions: SPOT analysis of membrane-bound peptides, Myo5 SH3 domain; normalized value (see methods)

| Sequence | The normalized value in BLU units |
| --- | --- |
| RLLFRSLPPHPACL | 745.7 BLU |
| RLPSKTDPLDPHIK | 129.4 BLU |
| RLVSKYRPNCPIIL | 286.2 BLU |
| RMQQKNSPAFPTHS | 1283.9 BLU |
| RRHNRQHPPYPHSG | 1287.6 BLU |
| RRIRKEHPGEPNVI | 308.3 BLU |
| RRRTRLRPPTPLSQ | 1508.6 BLU |
| RTFFKLPPNLPEAE | 2608.2 BLU |
| RTPSKPDPMEPENT | 186.9 BLU |
| RYCFKLLPPQPGSK | 189.7 BLU |
| SANGKFIPSRPAPK | 6758.2 BLU |
| SETARKVPPIPTQI | 420.1 BLU |
| SGSGRRYPQTPSYY | 435.6 BLU |
| SKDKKTKPTPPPKP | 179.5 BLU |
| SKIKRSRPPPPPMD | 5408.9 BLU |
| SKNWKLPPRLPHRA | 5572.0 BLU |
| SLIPKIEPAEPTYS | 85.4 BLU |
| SLLAKYQPSLPLVE | 162.4 BLU |
| SMAMRPIPPLPTES | 1326.7 BLU |
| SQKKKALPKQPKAS | 492.9 BLU |

Same assay, conditions: SPOT analysis of membrane-synthesized peptides probed with Myo5 SH3 domain; normalized value

| Sequence | The normalized value in BLU units (SPOT analysis, Myo5 SH3) |
| --- | --- |
| RLLSKYRPSCPIIL | 336.6 BLU |
| RLVNKLLPPHPFAD | 289.2 BLU |
| RPKRRAPPPVPKKP | 67429.7 BLU |
| RPVYRLKPNAPFQY | 209.8 BLU |
| RRKLRTVPGVPLIH | 2011.1 BLU |
| RSRSKKDPGIPSNF | 800.0 BLU |
| RYPFRMIPELPPKR | 3574.9 BLU |
| SDNSKSEPLPPVIT | 130.5 BLU |
| SEMHRAAPETPRSI | 322.4 BLU |
| SERRKALPKEPKKL | 200.0 BLU |
| SFIRKRAPTPPAPS | 878.2 BLU |
| SFVTKYLPAAPVGS | 214.9 BLU |
| SIIPRIFPSTPGTI | 368.8 BLU |
| SILNRCVPKRPTID | 132.7 BLU |
| SILRKSSPEEPFMS | 144.2 BLU |
| SKIPKSIPIIPYVL | 243.1 BLU |
| SLGERFMPMAPEVY | 139.8 BLU |
| SLTLKTLPRVPTDS | 211.7 BLU |
| SMDSKRKPSPPSQR | 509.7 BLU |
| SNFKKRDPGLPDFQ | 160.6 BLU |
| SRYLKDHPNLPTPE | 69.2 BLU |
| SSKIRPTPRKPSRM | 673.3 BLU |
| SSVSKLKPSLPNKL | 418.3 BLU |
